This note sets out measurements from ChEMBL document CHEMBL1201862, “PubChem BioAssay data set” (2004).

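Tested at 5 concentrations; 48 h exposure; 96-well plates; endpoints linearly interpolated, else capped at highest concentration. GI50: concentration for 50% inhibition of growth.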 Activity calls are given as the source filed them. Rule as the data show it: active = GI50 up to about 1.1 µM and inactive = higher.

Test systems include Malme-3M; SF-268; SNB-75; U-251; CCRF-CEM; NCI-H23; SW-620; KM12; M19-MEL; 786-0; SF-295; SNB-19; HCC 2998; SK-MEL-28; LOX IMVI; CAKI-1.
Test in all cases: NCI-60 cell line screen, 48 h

With `O=[PH](O)c1cccnc1`, the GI50 with Malme-3M, in the test on SF-268, with SNB-75, with U-251, in the test on CCRF-CEM and in the test with NCI-H23 was > 100 µM (inactive) each time. In addition, the GI50 in the test with SW-620, in the test on KM12, in the test with M19-MEL, in the test on 786-0, in the test on SF-295 and in the test with SNB-19 was > 100 µM (inactive) throughout. In addition, the GI50 in the test with HCC 2998, in the test on SK-MEL-28, in the test with LOX IMVI and in the test on CAKI-1 was > 100 µM (inactive) in each case.
In the case of `Clc1ccc(SC(/C=C/NNC2=NN=C(c3ccccc3)C(c3ccccc3)N2)c2ccccc2)cc1` (centres undefined), the GI50 with Malme-3M was 18.2 µM (inactive); in the test on SF-268, 14.4 µM (inactive); in the test on SNB-75, 15.2 µM (inactive); in the test with U-251, 31.2 µM (inactive); with CCRF-CEM, 17.1 µM (inactive); with NCI-H23, 10.4 µM (inactive). Besides, the GI50 in the test on SW-620 was 33.5 µM (inactive); in the test with KM12, 21 µM (inactive); with M19-MEL it was 36.5 µM (inactive); in the test with 786-0 it was 28.2 µM (inactive); in the test on SF-295 it was 19.3 µM (inactive); with SNB-19 it was 80.5 µM (inactive). Further, the GI50 is 19.7 µM (inactive) in the test with HCC 2998, 20.8 µM (inactive) in the test with SK-MEL-28, 21.9 µM (inactive) with LOX IMVI and 12.3 µM (inactive) in the test with CAKI-1.
`CN1CC[C@]2(C)c3c(O)cccc3CC3CCCC1C32C` (some centres undefined): the GI50 in the test on Malme-3M is > 100 µM (inactive); with SF-268 it was > 100 µM (inactive); in the test with SNB-75 it was 45.4 µM (inactive); with U-251, > 100 µM (inactive); in the test with CCRF-CEM, > 100 µM (inactive); in the test with NCI-H23, > 100 µM (inactive). Besides, the GI50 was > 100 µM (inactive) in the test on KM12; > 100 µM (inactive) in the test on M19-MEL; > 100 µM (inactive) with 786-0; > 100 µM (inactive) with SF-295; > 100 µM (inactive) in the test on SNB-19; 15.8 µM (inactive) with HCC 2998. Besides, the GI50 with SK-MEL-28, in the test on LOX IMVI and in the test with CAKI-1 was > 100 µM (inactive) in each case.
In the case of `CC1=NN(C(=O)Cc2ccccc2)C(=O)/C1=C\c1cccc(O)c1`, the GI50 in the test on Malme-3M, with SF-268, with SNB-75, with U-251, with CCRF-CEM and with NCI-H23 was > 100 µM (inactive) throughout. Besides, the GI50 in the test with SW-620, with KM12, with M19-MEL, with 786-0, in the test on SF-295 and in the test with SNB-19 was > 100 µM (inactive) each time. Further, the GI50 with HCC 2998, in the test on SK-MEL-28, with LOX IMVI and with CAKI-1 was > 100 µM (inactive) in each case.
For `COC(=O)C12OCC34C(CC5C(C)C6=CC(=O)OC6=CC5(C)C3C(O)C1O)OC(=O)C(OC(C)=O)C24` (centres undefined), the GI50 is 13 µM (inactive) in the test with Malme-3M; 17 µM (inactive) with SF-268; 0.887 µM (active) in the test on SNB-75; 23.5 µM (inactive) in the test on U-251; 6.37 µM (inactive) in the test on CCRF-CEM; 15.1 µM (inactive) with NCI-H23. The GI50 in the test on SW-620 was 9.4 µM (inactive); in the test with KM12, 16.4 µM (inactive); in the test with M19-MEL, 15.4 µM (inactive); with 786-0 it was 14.5 µM (inactive); with SF-295, 23 µM (inactive); in the test on SNB-19 it was 33.2 µM (inactive). In addition, the GI50 was 16.1 µM (inactive) with HCC 2998, 15.5 µM (inactive) in the test on SK-MEL-28, 17.6 µM (inactive) in the test on LOX IMVI and 9.91 µM (inactive) with CAKI-1.
As to `CC[N+](C)(C)c1ccc(C(=C2C=CC(=[N+](C)C)C=C2)c2ccc(N(C)C)cc2)cc1`, the GI50 in the test on Malme-3M was 22.8 µM (inactive); in the test on SF-268, 10.8 µM (inactive); in the test with SNB-75, 4.76 µM (inactive); in the test on U-251, 3.94 µM (inactive); in the test on CCRF-CEM, 7.05 µM (inactive); in the test on NCI-H23, 17.7 µM (inactive). For the same compound, the GI50 is 4.41 µM (inactive) with SW-620; 4.55 µM (inactive) in the test on KM12; 7.91 µM (inactive) in the test with M19-MEL; 5.94 µM (inactive) in the test on 786-0; 8.67 µM (inactive) in the test on SF-295; 6.17 µM (inactive) with HCC 2998. Also, the GI50 was 16.9 µM (inactive) with SK-MEL-28, 5.2 µM (inactive) with LOX IMVI and 23.7 µM (inactive) with CAKI-1.
As for `Cc1nc2ccccc2c(=O)n1/N=C(\N=N\c1ccccc1)c1ccccc1Cl`, the GI50 is 53 µM (inactive) in the test with Malme-3M; 39 µM (inactive) in the test on SF-268; 23.8 µM (inactive) with SNB-75; 40.6 µM (inactive) with U-251; 26.7 µM (inactive) with CCRF-CEM; 27.7 µM (inactive) in the test with NCI-H23. The GI50 is > 88.5 µM (inactive) in the test with SW-620; 41.4 µM (inactive) in the test on KM12; > 84.5 µM (inactive) in the test on M19-MEL; 44.8 µM (inactive) in the test on 786-0; 1.04 µM (active) in the test with SF-295; 48.1 µM (inactive) with SNB-19. The GI50 in the test on HCC 2998 is 38.2 µM (inactive); in the test with SK-MEL-28 it was 79.3 µM (inactive); with LOX IMVI, 66.1 µM (inactive); in the test with CAKI-1, 25.4 µM (inactive).
Regarding `COc1cc(/C=C(\NC(=O)c2ccccc2)c2nc3ccc4c(c3[nH]2)C(=O)c2ccccc2C4=O)cc(OC)c1OC`, the GI50 is > 100 µM (inactive) in the test with Malme-3M; 8.91 µM (inactive) in the test with SF-268; 22.9 µM (inactive) in the test on SNB-75; 31.9 µM (inactive) in the test with U-251; 0.687 µM (active) in the test on CCRF-CEM; 55.6 µM (inactive) in the test with NCI-H23. The GI50 with SW-620 is 38.3 µM (inactive); with KM12, 8.05 µM (inactive); in the test on M19-MEL, > 100 µM (inactive); with 786-0, 28.2 µM (inactive); in the test with SF-295, 55.7 µM (inactive); in the test on SNB-19, 99.1 µM (inactive). In addition, the GI50 was > 100 µM (inactive) in the test on HCC 2998, 77.6 µM (inactive) in the test on SK-MEL-28, 20.3 µM (inactive) in the test with LOX IMVI and 10.1 µM (inactive) in the test with CAKI-1.
As for `Cc1ccc(N2C(=O)C(Cl)=C(Cl)C2=O)cc1`, the GI50 was 18.7 µM (inactive) with Malme-3M; 17.9 µM (inactive) in the test on SF-268; 22.5 µM (inactive) in the test with SNB-75; 38.3 µM (inactive) in the test on U-251; 5.11 µM (inactive) in the test on CCRF-CEM; 20.7 µM (inactive) with NCI-H23. Further, the GI50 in the test with SW-620 was 19.7 µM (inactive); in the test on KM12, 20.5 µM (inactive); in the test on M19-MEL it was 21 µM (inactive); with 786-0, 17.3 µM (inactive); with SF-295, 71.8 µM (inactive); with SNB-19 it was > 100 µM (inactive). Further, the GI50 in the test on HCC 2998 was 34.4 µM (inactive); with SK-MEL-28, 16.5 µM (inactive); with LOX IMVI it was 23.6 µM (inactive); with CAKI-1 it was 17.1 µM (inactive).
Turning to `O=S1(=O)CCCS(=O)(=O)C(c2ccccc2)=C1c1ccccc1`, the GI50 is 34.2 µM (inactive) in the test with Malme-3M; > 100 µM (inactive) with SF-268; 27.5 µM (inactive) in the test with SNB-75; 92.7 µM (inactive) in the test with U-251; 32.1 µM (inactive) with CCRF-CEM; 50.5 µM (inactive) in the test with NCI-H23. Besides, the GI50 was 27.5 µM (inactive) in the test with SW-620; 24.7 µM (inactive) in the test on KM12; 70.5 µM (inactive) in the test with M19-MEL; 66.4 µM (inactive) in the test with 786-0; > 10 µM (inactive) in the test with SF-295; 18.5 µM (inactive) in the test on HCC 2998. The GI50 in the test with SK-MEL-28 is > 100 µM (inactive); in the test on LOX IMVI, 33 µM (inactive); in the test with CAKI-1, 76.7 µM (inactive).
Consider `COc1cc(-c2cc(CCC(=O)Nc3ccccc3[N+](=O)[O-])n(-c3ccc([N+](=O)[O-])cc3[N+](=O)[O-])n2)ccc1O`, for which the GI50 was > 10 µM (inactive) in the test on Malme-3M; > 10 µM (inactive) in the test on SF-268; 89.9 µM (inactive) with SNB-75; > 10 µM (inactive) in the test on U-251; > 10 µM (inactive) in the test with CCRF-CEM; > 10 µM (inactive) in the test with NCI-H23. The GI50 in the test on SW-620, in the test with KM12, in the test with M19-MEL, in the test with 786-0, with SF-295 and in the test with SNB-19 was > 10 µM (inactive) in each case. The GI50 in the test with HCC 2998, in the test on SK-MEL-28, in the test with LOX IMVI and with CAKI-1 was > 10 µM (inactive) each time.
In the case of `O=C(NO)c1ccc([N+](=O)[O-])cc1`, the GI50 in the test on Malme-3M was 26.9 µM (inactive); in the test on SF-268, > 100 µM (inactive); with SNB-75, 23.9 µM (inactive); in the test with U-251, 43 µM (inactive); in the test with CCRF-CEM, 26 µM (inactive); with NCI-H23, 36.6 µM (inactive). Further, the GI50 in the test on SW-620 was 50.8 µM (inactive); in the test on KM12 it was 64.9 µM (inactive); with M19-MEL, 52.2 µM (inactive); in the test on 786-0, > 100 µM (inactive); in the test with SF-295 it was 42.1 µM (inactive); in the test with SNB-19, 46.2 µM (inactive). For the same compound, the GI50 in the test with HCC 2998 was 37.8 µM (inactive); in the test with SK-MEL-28 it was 23.4 µM (inactive); with LOX IMVI it was 40.8 µM (inactive); in the test with CAKI-1, 61 µM (inactive).
